Here are results for 20 molecules from patent publication US20240425491A1, “HETEROARYL COMPOUNDS USEFUL IN THE TREATMENT OF COGNITIVE DISORDERS” (University College Cardiff Consultants Limited, priority 2021, published 2024).

Broadly, the Ki is a dissociation constant, usually derived from enzyme kinetics or from competition with a known ligand.

Test [1] deals with T1, human recombinant GABAAR containing α5β3γ2 subunits (benzodiazepine site) (Homo sapiens, UniProt P18507+P31644).
T1 construct: expressed in transfected cells; host or cells: mouse L(tk−) cells, dexamethasone-inducible vector pMSGneo
T1 sequence (P31644 32-462): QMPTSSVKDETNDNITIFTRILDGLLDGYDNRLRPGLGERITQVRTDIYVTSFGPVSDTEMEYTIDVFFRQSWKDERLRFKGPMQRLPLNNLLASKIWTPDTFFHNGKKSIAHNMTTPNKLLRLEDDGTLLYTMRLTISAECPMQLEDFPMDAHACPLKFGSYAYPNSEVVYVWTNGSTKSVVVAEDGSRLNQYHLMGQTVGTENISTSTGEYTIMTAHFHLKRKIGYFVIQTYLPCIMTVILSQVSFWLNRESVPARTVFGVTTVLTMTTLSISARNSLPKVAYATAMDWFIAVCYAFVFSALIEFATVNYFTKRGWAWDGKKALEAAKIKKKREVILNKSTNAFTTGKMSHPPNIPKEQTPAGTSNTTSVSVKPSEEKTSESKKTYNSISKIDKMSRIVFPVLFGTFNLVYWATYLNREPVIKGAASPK
T1 sequence (P28472 26-473 partner): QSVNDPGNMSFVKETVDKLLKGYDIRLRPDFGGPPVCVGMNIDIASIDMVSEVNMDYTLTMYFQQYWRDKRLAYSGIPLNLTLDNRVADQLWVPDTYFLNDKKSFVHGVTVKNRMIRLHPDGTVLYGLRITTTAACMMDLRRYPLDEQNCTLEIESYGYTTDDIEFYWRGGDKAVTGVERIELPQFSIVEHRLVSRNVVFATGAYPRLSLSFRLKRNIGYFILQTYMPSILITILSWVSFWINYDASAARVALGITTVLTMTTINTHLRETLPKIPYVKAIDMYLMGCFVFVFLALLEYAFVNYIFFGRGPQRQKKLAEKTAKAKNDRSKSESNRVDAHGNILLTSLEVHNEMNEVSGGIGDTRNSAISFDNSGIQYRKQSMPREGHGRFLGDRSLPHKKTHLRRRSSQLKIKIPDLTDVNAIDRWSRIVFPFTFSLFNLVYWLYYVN
T1 sequence (P18507 40-475): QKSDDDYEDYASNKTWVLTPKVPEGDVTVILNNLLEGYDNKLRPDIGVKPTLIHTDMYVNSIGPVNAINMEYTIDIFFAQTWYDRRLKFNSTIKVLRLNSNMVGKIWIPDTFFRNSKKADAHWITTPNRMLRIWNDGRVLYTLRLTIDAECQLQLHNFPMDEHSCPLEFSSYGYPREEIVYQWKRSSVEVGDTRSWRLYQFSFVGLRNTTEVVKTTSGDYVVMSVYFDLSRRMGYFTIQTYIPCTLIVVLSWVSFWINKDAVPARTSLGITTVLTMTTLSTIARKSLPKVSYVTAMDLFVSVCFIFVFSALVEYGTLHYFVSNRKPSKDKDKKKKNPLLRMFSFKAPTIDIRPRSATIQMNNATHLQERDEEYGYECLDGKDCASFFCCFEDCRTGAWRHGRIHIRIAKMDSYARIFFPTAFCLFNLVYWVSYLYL
The test can be described thus: In vitro radioligand binding assay (α5-GABAAR Ki). Conditions: inhibition of [3H]Ro15-1788 binding, membranes of L(tk−) cells expressing human α5β3γ2; read-out: α5-GABAAR Ki. In outline: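 Displacement of 4 nM [^3H]flumazenil from the benzodiazepine site, read by filtration and scintillation, gave IC50, converted to Ki (Cheng-Prusoff, saturation-derived Kd). Receptor: human α5β3γ2 membranes from L(tk^−) cells, 50 μg protein/well; 1 h, 4° C; TP003 1 μM defined nonspecific binding.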

The target of test [2] is T2, human α5β3γ2 GABAARs in mouse L(tk−) cells (Homo sapiens, UniProt P18507+P31644).
T2 construct: expressed in transfected cells; host or cells: mouse L(tk−) cells, dexamethasone-inducible vector pMSGneo
T2 sequence (P31644 32-462): as the sequence (P31644 32-462) above
T2 sequence (P28472 26-473 partner): as the sequence (P28472 26-473 partner) above
T2 sequence (P18507 40-475): as the sequence (P18507 40-475) above
The experiment in a line: In vitro electrophysiological recording assay (α5-GABAAR relative efficacy), QPatch. The class given is cell-based. Conditions: GABA EC10-20. An excerpt:
Mouse L(tk^−) cells stably expressing human α1β3γ2, α2β3γ2, α3β3γ2, α5β3γ2 GABAARs generated by transfection of the individual subunits in the dexamethasone-inducible expression vector pMSGneo in mouse L(tk^−) cells (Hadingham et al., 1993, Mol. Pharmacol. 43:970-975 and 1993, Mol. Pharmacol. 44:1211-1218) were used for binding and functional assays. For certain compounds, HEK293 cells stable expressing the human α1β3γ2L, α2β3γ2L, α3β3γ2L and α5β3γ2L GABAA receptors were used to evaluate their functional effects in a SyncroPatch electrophysiology assay.
For QPatch electrophysiology testing, 1 μM dexamethasone was added to the culture medium of L(tk^−) cells 24 hours before the recordings were performed. Cells were typically used for electrophysiology experiments 72-96 hours after splitting.
The efficacy of modulators was evaluated using either the automated patch-clamp platform QPatch16 (Sophion, Copenhagen, Denmark) or the SyncroPatch 384i (Nanion Technologies, Germany). Cells were harvested from flasks by enzymatic dissociation and re-suspended in serum-free medium.
For QPatch recordings, all experiments were carried out at room temperature (20-22° C.) using a standard whole cell procedure and physiological solutions. Gigaseals were formed upon execution of a combined suction/voltage protocol with subsequent increased suction leading to the whole-cell configuration. The currents recorded were acquired at 1 KHz and filtered at 0.3 KHz using a Bessel filter. Whole-cell currents were measured at a holding potential of −65 mV.
For QPatch recordings, the extracellular solution contained of (in mM): 145 NaCl, 4 KCl, 1 MgCl2, 2CaCl2, 10 HEPES, 10 D-glucose (pH 7.4), and the intracellular solution consisted of (in mM): 96 KCl, 28 CsCl, 25 KOH, 4.3 CaCl2), 1.4 MgCl2, 10 EGTA, HEPES, 3 MgATP (pH 7.2). The osmolarities of the extracellular and intracellular solutions were 305 and 295 mOsm respectively.
The effects of modulators were evaluated in the presence of a submaximal GABA concentration, giving typically 10-20% activation (GABA EC10-20) of the response elicited by a saturating GABA concentration. For QPatch recordings, to check and ensure baseline current stability before compound addition, five consecutive applications of GABA EC10-20 alone (each application with a 2 s duration, separated by minimum 1 min wash off periods) were performed before compound addition. The test compound was applied using the pipetting system of the QPatch system 1 min at least prior to co-application with GABA EC10-20. For SyncroPatch recordings, GABA EC20 alone was applied three times (1 s long applications, with wash steps in-between) before compound addition. This was followed by a 1-2 min pre-incubation with the test compound and then re-application of GABA EC10-20 in the presence of the compound. Finally, following a further wash step, a saturating concentration of GABA was applied, allowing the accurate evaluation for each cell of the percentage baseline activation elicited by the submaximal GABA applied.
The compounds were first dissolved in DMSO as a 10 mM stock and then further diluted to the testing concentrations so that the final DMSO concentration in the extracellular recording solution was kept constant at 0.1% for the QPatch recordings, or 0.2% for the SyncroPatch recordings.
The % efficacy of modulators was determined from the GABA elicited currents recorded in the presence and absence of the test compound, using the formula:
[((compound peak current−leak)−(GABA peak current−leak))/(GABA peak current−leak)]*100,
where ‘leak’ is the leak baseline current at −65 mV, ‘compound peak current’ is the current elicited by co-application of compound and GABA, and ‘GABA peak current’ is the current elicited by GABA alone during the 5th GABA application. The results were presented as ‘relative efficacy’ for each compound generally at a concentration equal or higher than 100 times their determined Ki. […]
(In patch-clamp work, channel activity is measured electrically.)

SMILES strings stand for the structures.

For `COc1nc(-n2cncn2)ccc1NC(=O)c1c(-c2ccccc2)noc1C` [Example 46, N-[2-Methoxy-6-(1,2,4-triazol-1-yl)-3-pyridyl]-5-methyl-3-phenyl-isoxazole-4-carboxamide], the Ki in test [1] amounted to 4.4 nM. Also, the “α5-GABAAR Relative Efficacy (to DMCM), Qpatch” value (“α5-GABAAR Relative Efficacy” for short) in test [2] (Conc 1 μM) is recorded as −0.69.
With `CCOc1ncc(-c2ccc(NC(=O)c3c(-c4ccccc4)noc3C)c(OC)n2)cn1` [Example 48, N-[6-(2-Ethoxypyrimidin-5-yl)-2-methoxy-3-pyridyl]-5-methyl-3-phenyl-isoxazole-4-carboxamide], the Ki in test [1] came to 2.7 nM. The “α5-GABAAR Relative Efficacy” value in test [2] (Conc 0.3 μM) was −0.90.
With `COc1nc(-c2ccc3[nH]nnc3c2)ccc1NC(=O)c1c(-c2ccccc2)noc1C` [Example 49, N-[6-(1H-Benzotriazol-5-yl)-2-methoxy-3-pyridyl]-5-methyl-3-phenyl-isoxazole-4-carboxamide], in test [1], the Ki came out at 7.9 nM. Further, the “α5-GABAAR Relative Efficacy” value in test [2] (Conc 1 μM) is listed as −0.83.
The like results for `COc1nc(-c2cccc3nc(N)nn23)ccc1NC(=O)c1c(-c2ccccc2)noc1C` [Example 50, N-[6-(2-Amino-[1,2,4]triazolo[1,5-a]pyridin-5-yl)-2-methoxy-3-pyridyl]-5-methyl-3-phenyl-isoxazole-4-carboxamide] were, in that order, 9.6 nM and −0.74.
The like results for `COc1nc(-c2ncnn2C)ccc1NC(=O)c1c(-c2ccccc2)noc1C` [Example 52, N-[2-Methoxy-6-(2-methyl-1,2,4-triazol-3-yl)-3-pyridyl]-5-methyl-3-phenyl-isoxazole-4-carboxamide] were, in that order, 9.8 nM and −0.49.
For `COc1nc(-c2nccnc2N)ccc1NC(=O)c1c(-c2ccccc2)noc1C` [Example 54, N-[6-(3-Aminopyrazin-2-yl)-2-methoxy-3-pyridyl]-5-methyl-3-phenyl-isoxazole-4-carboxamide], the Ki in test [1] stood at 7.4 nM. In addition, the “α5-GABAAR Relative Efficacy” value in test [2] (Conc 1 μM) is −0.55.
For the molecule `COc1nc(-c2cncnc2)cnc1NC(=O)c1c(-c2ccccc2)noc1C` [Example 56, N-(3-Methoxy-5-(pyrimidin-5-yl)pyrazin-2-yl)-5-methyl-3-phenylisoxazole-4-carboxamide], the Ki in test [1] stood at 2.3 nM. The “α5-GABAAR Relative Efficacy” value in test [2] (Conc 0.3 μM) is −0.64.
For `COc1nc(-c2ccc3nc(N)nn3c2)ccc1NC(=O)c1c(-c2ccccc2)noc1C` [Example 57, N-[6-(2-Amino-[1,2,4]triazolo[1,5-a]pyridin-6-yl)-2-methoxy-3-pyridyl]-5-methyl-3-phenyl-isoxazole-4-carboxamide], in that order: 1.5 nM and −0.57.
As to `COc1nc(-c2nnco2)ccc1NC(=O)c1c(-c2ccccc2)noc1C` [Example 58, N-[2-Methoxy-6-(1,3,4-oxadiazol-2-yl)-3-pyridyl]-5-methyl-3-phenyl-isoxazole-4-carboxamide], the Ki in test [1] was determined as 18.1 nM. In test [2] (Conc 3 μM), the “α5-GABAAR Relative Efficacy” value is recorded as −0.79.
For `COc1nc(-c2cnc(OCC(F)(F)F)nc2)ccc1NC(=O)c1c(-c2ccccc2)noc1C` [Example 59, N-[2-Methoxy-6-[2-(2,2,2-trifluoroethoxy)pyrimidin-5-yl]-3-pyridyl]-5-methyl-3-phenyl-isoxazole-4-carboxamide], in that order: 10.4 nM and −0.75.
Take `COc1nc(-c2cnc(C(=O)O)nc2)ccc1NC(=O)c1c(-c2ccccc2)noc1C` [Example 60, 5-[6-Methoxy-5-[(5-methyl-3-phenyl-isoxazole-4-carbonyl)amino]-2-pyridyl]pyrimidine-2-carboxylic acid]: the Ki in test [1] was 1.3 nM. Further, the “α5-GABAAR Relative Efficacy” value in test [2] (Conc 0.3 μM) is −0.92.
As for `COc1nc(-c2ccn3nc(N)nc3c2)ccc1NC(=O)c1c(-c2ccccc2)noc1C.Cl` [Example 61, N-[6-(2-Amino-[1,2,4]triazolo[1,5-a]pyridin-7-yl)-2-methoxy-3-pyridyl]-5-methyl-3-phenyl-isoxazole-4-carboxamide hydrochloride], in test [1], the Ki was 1.4 nM. Also, the “α5-GABAAR Relative Efficacy” value in test [2] (Conc 0.3 μM) is listed as −0.85.
The like results for `COc1nc(-n2cnnc2)ccc1NC(=O)c1c(-c2ccccc2)noc1C` [Example 62, N-[2-Methoxy-6-(1,2,4-triazol-4-yl)-3-pyridyl]-5-methyl-3-phenyl-isoxazole-4-carboxamide] were, in that order, 1.9 nM and −0.61.
`COC(=O)c1ncc(-c2ccc(NC(=O)c3c(-c4ccccc4)noc3C)c(OC)n2)cn1` [Example 70, Methyl 5-[6-methoxy-5-[(5-methyl-3-phenyl-isoxazole-4-carbonyl)amino]-2-pyridyl]pyrimidine-2-carboxylate]: the Ki in test [1] is 0.7 nM. The “α5-GABAAR Relative Efficacy” value in test [2] (Conc 0.1 μM) was −0.89.
As to `COc1ccc(-c2cnc(NC(=O)c3c(-c4ccccc4)noc3C)c(OC)n2)cn1` [Example 71, N-[3-Methoxy-5-(6-methoxy-3-pyridyl)pyrazin-2-yl]-5-methyl-3-phenyl-isoxazole-4-carboxamide], the Ki in test [1] worked out at 2.8 nM. Further, the “α5-GABAAR Relative Efficacy” value in test [2] (Conc 0.3 μM) is listed as −0.94.
The like results for `COc1ncc(-c2cnc(NC(=O)c3c(-c4ccccc4)noc3C)c(OC)n2)cn1` [Example 72, N-[3-Methoxy-5-(2-methoxypyrimidin-5-yl)pyrazin-2-yl]-5-methyl-3-phenyl-isoxazole-4-carboxamide] were, in that order, 2 nM and −1.04.
Regarding `CNC(=O)c1ncc(-c2ccc(NC(=O)c3c(-c4ccccc4)noc3C)c(OC)n2)cn1` [Example 75, N-[2-Methoxy-6-[2-(methylcarbamoyl)pyrimidin-5-yl]-3-pyridyl]-5-methyl-3-phenyl-isoxazole-4-carboxamide], the inhibition constant Ki in test [1] was 0.6 nM. In test [2] (Conc 0.1 μM), the “α5-GABAAR Relative Efficacy” value was −0.92.
For the molecule `COc1nc(-c2ccc3[nH]c(=O)n(C)c3c2)ccc1NC(=O)c1c(-c2ccccc2)noc1C` [Example 77, N-(2-Methoxy-6-(3-methyl-2-oxo-2,3-dihydro-1H-benzo[d]imidazol-5-yl)pyridin-3-yl)-5-methyl-3-phenylisoxazole-4-carboxamide], the Ki in test [1] was found to be 16.1 nM. Also, the “α5-GABAAR Relative Efficacy” value in test [2] (Conc 3 μM) is listed as −0.22.
Turning to `COc1nc(-c2cnccc2N)ccc1NC(=O)c1c(-c2ccccc2)noc1C` [Example 78, N-(4′-Amino-6-methoxy-[2,3′-bipyridin]-5-yl)-5-methyl-3-phenylisoxazole-4-carboxamide], the Ki in test [1] turned out to be 1 nM. In test [2] (Conc 0.1 μM), the “α5-GABAAR Relative Efficacy” value was −0.42.
The like results for `COc1nc(-c2cnc3n2CCOC3)ccc1NC(=O)c1c(-c2ccccc2)noc1C` [Example 79, N-[6-(6,8-Dihydro-5H-imidazo[2,1-c][1,4]oxazin-3-yl)-2-methoxy-3-pyridyl]-5-methyl-3-phenyl-isoxazole-4-carboxamide] were, in that order, 0.8 nM and −0.76.
